According to EP4603105A1, “PHARMACEUTICAL COMPOSITION CONTAINING CYCLIC COMPOUND HAVING SELECTIVE KRAS INHIBITORY EFFECT AGAINST HRAS AND NRAS” (CHUGAI SEIYAKU KABUSHIKI KAISHA, priority 2022, dated 2024):
pIC50, pKd: −log10 of the molar value. Read-outs that look alike come from different tables or passages of the source.

Experiments:
[1] = biological target: GDP-bound KRAS wild-type protein (Homo sapiens, UniProt P01116); test: Binding to KRAS by surface plasmon resonance (SPR), dissociation constant KD; conditions: 1:1 binding model
Method in brief: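 GDP-loaded biotinylated Avi-tag RAS proteins (E. coli-expressed) captured on a Biotin CAPture chip at ~100–300 RU; single-cycle kinetics at 30°C, 100 µL/min, 75 s injections of rising compound concentrations. HBS pH 7.4 running buffer with 1 mM DTT, 10 mM MgCl2, 10 µM GDP, 4% DMSO. KD from 1:1 binding fit.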

[2] = biological target: GDP-bound NRAS wild-type protein (Homo sapiens, UniProt P01111); test: Binding to NRAS by surface plasmon resonance (SPR), KD and KD ratio to KRAS; conditions: ratio of KD for GDP-bound NRAS wild-type protein to KD for KRAS
Method in brief: (§1)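 Affinity is measured by surface plasmon resonance at 30°C against captured, GDP-loaded RAS carrying a biotinylated Avi tag. Compounds are titrated by single-cycle kinetics, and KD comes from a 1:1 fit.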

HRAS wild-type protein = HRAS wild-type protein (Homo sapiens, UniProt P01112); test: Binding to HRAS by surface plasmon resonance (SPR), KD and KD ratio to KRAS; conditions: ratio of KD for HRAS wild-type protein to KD for KRAS
Method in brief: as §1

[3] = system: human lung cancer strain NCI-H441; type: cell-based
Method in brief: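 Readout: […] after the ATP-based reagent. Compound: serial dilutions in dimethyl sulfoxide.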

GDP-bound KRAS wild-type protein, sequence (P01116 1-188 isoform P01116-2): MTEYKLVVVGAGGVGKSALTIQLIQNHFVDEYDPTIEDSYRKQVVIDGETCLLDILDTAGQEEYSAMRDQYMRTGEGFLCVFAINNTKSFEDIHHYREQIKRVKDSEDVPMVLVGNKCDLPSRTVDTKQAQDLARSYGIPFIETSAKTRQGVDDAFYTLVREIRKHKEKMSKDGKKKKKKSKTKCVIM
HRAS wild-type protein, sequence (P01112 whole entry): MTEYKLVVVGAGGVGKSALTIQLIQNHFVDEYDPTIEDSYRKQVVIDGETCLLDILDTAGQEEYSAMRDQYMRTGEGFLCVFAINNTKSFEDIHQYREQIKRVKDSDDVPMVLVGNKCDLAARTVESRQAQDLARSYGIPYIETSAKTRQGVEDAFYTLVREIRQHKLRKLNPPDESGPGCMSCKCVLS
GDP-bound NRAS wild-type protein, sequence (P01111 whole entry): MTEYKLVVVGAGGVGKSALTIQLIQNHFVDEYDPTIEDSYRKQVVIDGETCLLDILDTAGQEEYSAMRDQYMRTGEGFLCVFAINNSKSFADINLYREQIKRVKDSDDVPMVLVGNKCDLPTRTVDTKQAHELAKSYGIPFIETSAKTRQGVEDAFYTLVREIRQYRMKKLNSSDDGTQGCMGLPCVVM

SMILES | pKd [1] | NRAS /KRAS [2] | HRAS /KRAS (HRAS wild-type protein) | pIC50 [3] | pIC50 ([3]; NCI-H441 cells, 4 days, CellTiter-Glo, read-out: NCl-H441 IC50)
CCC[C@H]1C(=O)N[C@@H]([C@@H](C)CC)C(=O)N(C)CC(=O)N(C)[C@H]2C/C=C\CCN(C2=O)[C@@H](Cc2ccc(C)cc2)C(=O)N(C)CC(=O)N[C@@H](CCc2ccc(C(F)(F)F)c(OC)c2)C(=O)N2C[C@H](OCC)C[C@H]2C(=O)NC2(CC(C)(C)C2)C(=O)N(C)[C@@H](CC(F)(F)F)C(=O)N(C)[C@H](C(=O)N(C)C)CC(=O)N1C [PP3007] | 8.89 | A (a compound having 10 or more and less than 20 is denoted as A) | A (a compound having 10 or more and less than 20 is denoted as A) | 7.20 | 
CCC[C@H]1C(=O)N[C@@H]([C@@H](C)CC)C(=O)N(C)CC(=O)N(C)[C@H]2C/C=C\CCN(C2=O)[C@@H](Cc2ccc(C)cc2)C(=O)N(C)CC(=O)N[C@@H](CCc2ccc(C(F)(F)F)c(OC)c2)C(=O)N2C[C@H](OCC)C[C@H]2C(=O)NC2(CC(C)(C)C2)C(=O)N(C)[C@@H](CC(C)C)C(=O)N(C)[C@H](C(=O)N(C)C)CC(=O)N1C [PP3008] | 9.42 | A (a compound having 10 or more and less than 20 is denoted as A) | A (a compound having 10 or more and less than 20 is denoted as A) | 7.80 | 
CCC[C@H]1C(=O)N[C@@H]([C@@H](C)CC)C(=O)N(C)CC(=O)N(C)[C@H]2C/C=C\CCN(C2=O)[C@@H](Cc2ccc(C)cc2)C(=O)N(C)CC(=O)N[C@@H](CCc2ccc(C(F)(F)F)c(OC)c2)C(=O)N2CC3(CC3)C[C@H]2C(=O)NC2(CC(C)(C)C2)C(=O)N(C)[C@@H](CC(C)(C)C)C(=O)N(C)[C@H](C(=O)N(C)C)CC(=O)N1C [PP3009] | 10.14 | A (a compound having 10 or more and less than 20 is denoted as A) | A (a compound having 10 or more and less than 20 is denoted as A) | 8.11 | 
CCC[C@H]1C(=O)N[C@@H](C2CCCC2)C(=O)N(C)CC(=O)N(C)[C@H]2C/C=C\CCN(C2=O)[C@@H](Cc2ccc(C)cc2)C(=O)N(C)CC(=O)N[C@@H](CCc2ccc(C(F)(F)F)c(OC)c2)C(=O)N2CC3(CC3)C[C@H]2C(=O)NC2(CC(C)(C)C2)C(=O)N(C)[C@@H](CC(C)(C)C)C(=O)N(C)[C@H](C(=O)N(C)C)CC(=O)N1C [PP3010] | 9.39 | B (a compound having 3 or more and less than 10 is denoted as B) | B (a compound having 3 or more and less than 10 is denoted as B) | 7.74 | 
CCC[C@H]1C(=O)N[C@@H]([C@@H](C)CC)C(=O)N(C)CC(=O)N(C)[C@H]2C/C=C\CCN(C2=O)[C@@H](Cc2ccc(C)cc2)C(=O)N(C)CC(=O)N[C@@H](CCc2ccc(C(F)(F)F)c(OC)c2)C(=O)N2CC3(CC3)C[C@H]2C(=O)NC2(CC(C)(C)C2)C(=O)N(C)[C@@H]([C@@H](C)CC)C(=O)N(C)[C@H](C(=O)N(C)C)CC(=O)N1C [PP3011] | 9.24 | A (a compound having 10 or more and less than 20 is denoted as A) | B (a compound having 3 or more and less than 10 is denoted as B) | 7.51 | 
CCC[C@H]1C(=O)N[C@@H]([C@@H](C)CC)C(=O)N(C)CC(=O)N(C)[C@H]2C/C=C\CCN(C2=O)[C@@H](Cc2ccc(C)cc2)C(=O)N(C)CC(=O)N[C@@H](CCc2ccc(C(F)(F)F)c(OC)c2)C(=O)N2CC3(CC3)C[C@H]2C(=O)NC2(CC(C)(C)C2)C(=O)N(C)[C@@H](CC(C)C)C(=O)N(C)[C@H](C(=O)N(C)C)CC(=O)N1C [PP3013] | 9.28 | AA (a compound having 20 or more is denoted as AA) | B (a compound having 3 or more and less than 10 is denoted as B) | 7.53 | 
CCC[C@H]1C(=O)N[C@@H](C2CCCCC2)C(=O)N(C)CC(=O)N(C)[C@H]2C/C=C\CCN(C2=O)[C@@H](Cc2ccc(C)cc2)C(=O)N(C)CC(=O)N[C@@H](CCc2ccc(C(F)(F)F)c(Cl)c2)C(=O)N2C[C@H](OCC)C[C@H]2C(=O)NC2(CC(C)(C)C2)C(=O)N(C)[C@@H](CC(C)(C)C)C(=O)N(C)[C@H](C(=O)N(C)C)CC(=O)N1C [PP3018] | 9.49 | A (a compound having 10 or more and less than 20 is denoted as A) | B (a compound having 3 or more and less than 10 is denoted as B) | 7.72 | 
CCC[C@H]1C(=O)N[C@@H](C2CCCCC2)C(=O)N(C)CC(=O)N(C)[C@H]2C/C=C\CCN(C2=O)[C@@H](Cc2ccc(C)cc2)C(=O)N(C)CC(=O)N[C@@H](CCc2ccc(C(F)(F)F)c(Cl)c2)C(=O)N2C[C@H](OCC)C[C@H]2C(=O)NC2(CC(C)(C)C2)C(=O)N(C)[C@@H](CC(C)C)C(=O)N(C)[C@H](C(=O)N(C)C)CC(=O)N1C [PP3021] | 8.96 | AA (a compound having 20 or more is denoted as AA) | A (a compound having 10 or more and less than 20 is denoted as A) | 7.12 | 
CCC[C@H]1C(=O)N[C@@H](C2CCOCC2)C(=O)N(C)CC(=O)N(C)[C@H]2C/C=C\CCN(C2=O)[C@@H](Cc2ccc(C)cc2)C(=O)N(C)CC(=O)N[C@@H](CCc2ccc(C(F)(F)F)c(Cl)c2)C(=O)N2C[C@H](OCC)C[C@H]2C(=O)NC2(CC(C)(C)C2)C(=O)N(C)[C@@H](CC(C)(C)C)C(=O)N(C)[C@H](C(=O)N(C)C)CC(=O)N1C [PP3026] | 9.18 | A (a compound having 10 or more and less than 20 is denoted as A) | A (a compound having 10 or more and less than 20 is denoted as A) | 7.27 | 
CCC(CC)[C@H]1C(=O)N(C)[C@H](C(=O)N2CCCCC2)CC(=O)N(C)[C@H]2CCC/C=C/c3ccc(cc3)C[C@@H](C(=O)N(C)CC(=O)N[C@@H](CCc3ccc(Cl)c(Cl)c3)C(=O)N3CCC[C@H]3C(=O)NC3(CC(C)(C)C3)C(=O)N1C)N1CC/C=C\C[C@@H](C1=O)N(C)C(=O)CN(C)C(=O)[C@H]([C@@H](C)CC)NC2=O [PP3055] | 9.00 | AA (a compound having 20 or more is denoted as AA) | A (a compound having 10 or more and less than 20 is denoted as A) |  | 7.16
CCO[C@@H]1C[C@H]2C(=O)NC3(CC(C)(C)C3)C(=O)N(C)[C@@H](C3CCCC3)C(=O)N(C)[C@H](C(=O)N(C)CC)CC(=O)N(C)[C@H]3C/C=C/c4ccc(cc4)C[C@@H](C(=O)N(C)CC(=O)N[C@@H](CCc4ccc(Cl)c(Cl)c4)C(=O)N2C1)N1CC/C=C\C[C@@H](C1=O)N(C)C(=O)CN(C)C(=O)[C@H]([C@@H](C)CC)NC3=O [PP3056] | 8.85 | A (a compound having 10 or more and less than 20 is denoted as A) | A (a compound having 10 or more and less than 20 is denoted as A) | 6.82 | 
CCO[C@@H]1C[C@H]2C(=O)NC3(CC(C)(C)C3)C(=O)N(C)[C@@H](C3CCCC3)C(=O)N(C)[C@H](C(=O)N(C)C)CC(=O)N(C)[C@H]3CCCCC/C=C/c4ccc(cc4)C[C@@H](C(=O)N(C)CC(=O)N[C@@H](CCc4ccc(Cl)c(Cl)c4)C(=O)N2C1)N1CC/C=C\C[C@@H](C1=O)N(C)C(=O)CN(C)C(=O)[C@H]([C@@H](C)CC)NC3=O [PP3057] | 9.77 | A (a compound having 10 or more and less than 20 is denoted as A) | B (a compound having 3 or more and less than 10 is denoted as B) | 8.07 | 
CCCO[C@@H]1C[C@H]2C(=O)NC3(CC(C)(C)C3)C(=O)N(C)[C@@H](C3CCCC3)C(=O)N(C)[C@H](C(=O)N(C)CC)CC(=O)N(C)[C@H]3CCCc4ccc(cc4)C[C@@H](C(=O)N(C)CC(=O)N[C@@H](CCc4ccc(C(F)(F)F)c(OC)c4)C(=O)N2C1)N1CC/C=C\C[C@@H](C1=O)N(C)C(=O)CN(C)C(=O)[C@H]([C@@H](C)CC)NC3=O [PP3083] | 10.11 | A (a compound having 10 or more and less than 20 is denoted as A) | A (a compound having 10 or more and less than 20 is denoted as A) | 8.60 | 
CC[C@H](C)[C@@H]1NC(=O)[C@@H]2CCCc3ccc(cc3)C[C@@H](C(=O)N(C)CC(=O)N[C@@H](CCc3ccc(C(F)(F)F)c(OC)c3)C(=O)N3C[C@H](OC(C)C)C[C@H]3C(=O)NC3(CC(C)(C)C3)C(=O)N(C)[C@@H](C3CCCC3)C(=O)N(C)[C@H](C(=O)N(C)CC)CC(=O)N2C)N2CC/C=C\C[C@@H](C2=O)N(C)C(=O)CN(C)C1=O [PP3084] | 9.92 | A (a compound having 10 or more and less than 20 is denoted as A) | B (a compound having 3 or more and less than 10 is denoted as B) | 8.43 | 
